# From patent US6440903B1, “Substituted 2,4-diamino-1,3,5-triazines as herbicides” (Bayer Aktiengesellschaft, priority 1996, dated 2002)
# What was measured:
# [1] = test system: Sinapis; experiment: Post-emergence test; format: in vivo; conditions: greenhouse, 1000 g of ai./ha, scored after three weeks
# Protocol: (§1) Post-emergence Test Solvent: 5 parts by weight of acetone Emulsifier: 1 part by weight of alkylaryl polyglycol ether To produce a suitable preparation of active compound, 1 part by weight of active compound is mixed with the stated amount of solvent, the stated amount of emulsifier is added and the concentrate is diluted with water to the desired concentration. Test plants which have a height of 5-15 cm are sprayed with the preparation of active compound such that the particular amounts of active compounds desired are applied per unit area. The concentration of the spray liquor is chosen so that the particular amounts of active compound desired are applied in 1000 l of water/ha. After three weeks, the degree of damage to the plants is scored visually in % damage in comparison to the untreated control. The Figures Denote: 0%=no effect (like untreated control) 100%=total destruction
# [2] = test system: Setaria; experiment: Post-emergence test; format: in vivo; conditions: greenhouse, scored after three weeks; for pest or weed control at 1000 g/ha: 1000 g of ai./ha; for pest or weed control at 500 g/ha: 500 g of ai./ha
# Protocol: as §1
# [3] = test system: Amaranthus; experiment: Post-emergence test; format: in vivo; conditions: greenhouse, scored after three weeks; for pest or weed control at 1000 g/ha: 1000 g of ai./ha; for pest or weed control at 500 g/ha: 500 g of ai./ha
# Protocol: as §1
# [4] = test system: weeds; experiment: Pre-emergence test (summary in text); format: in vivo; conditions: result in words
# Protocol: (§2) Solvent: 5 parts by weight of acetone
# (§3) Emulsifier: 1 part by weight of alkylaryl polyglycol ether
# (§4) To produce a suitable preparation of active compound, 1 part by weight of active compound is mixed with the stated amount of solvent, the stated amount of emulsifier is added and the concentrate is diluted with water to the desired concentration.
# Seeds of the test plants are sown in normal soil. After about 24 hours, the soil is watered with the preparation of active compound. The amount of water per unit area is advantageously kept constant. The concentration of active compound in the preparation is immaterial, only the application rate of active compound per unit area matters.
# After three weeks, the degree of damage to the plants is scored visually in % damage in comparison to the development of the untreated control.
# (§5) 0%=no effect (like untreated control)
# [5] = test system: weeds; experiment: Post-emergence test (summary in text); format: in vivo; conditions: result in words
# Protocol: as §2, §3, §4
# Test plants which have a height of 5-15 cm are sprayed with the preparation of active compound such that the particular amounts of active compounds desired are applied per unit area. The concentration of the spray liquor is chosen so that the particular amounts of active compound desired are applied in 1000 l of water/ha.
# After three weeks, the degree of damage to the plants is scored visually in % damage in comparison to the untreated control.
# as §5
# [6] = test system: Wheat; experiment: Post-emergence test; format: in vivo; conditions: greenhouse, scored after three weeks; for % damage, Wheat: 250 g of ai./ha; for plant injury at 500 g/ha: Triticum aestivum, 504 h, 500 g of ai./ha, read-out: % damage, Wheat
# Protocol: as §1
# [7] = test system: Chenopodium; experiment: Post-emergence test; format: in vivo; conditions: greenhouse, scored after three weeks; for pest or weed control at 500 g/ha: 500 g of ai./ha
# Protocol: as §1
# [8] = test system: Viola; experiment: Post-emergence test; format: in vivo; conditions: greenhouse, scored after three weeks; for pest or weed control at 500 g/ha: 500 g of ai./ha
# Protocol: as §1
# [9] = test system: Polygonum; experiment: Post-emergence test; format: in vivo; conditions: greenhouse, scored after three weeks; for pest or weed control at 500 g/ha: 500 g of ai./ha
# Protocol: as §1
# [10] = Setaria, 504 h, read-out: % damage, Setaria
# [11] = Amaranthus, 504 h, read-out: % damage, Amaranthus
# [12] = Chenopodium, 504 h, read-out: % damage, Chenopodium
# [13] = 504 h, read-out: % damage, Viola
# [14] = Polygonum, 504 h, read-out: % damage, Polygonum
structure (smiles),measurement,setting,value
COCc1nc(NC(C)=O)nc(NC(C)c2ccc(SOC)cc2)n1 (stereo not shown),"% damage, Sinapis",[1],100%
same,pest or weed control at 1000 g/ha,[2]; [10],100%
same,pest or weed control at 1000 g/ha,[3]; [11],100%
COSc1ccc(C(C)Nc2nc(N)nc(C(C)Cl)n2)cc1 (stereo not shown),"% damage, Sinapis",[1],100%
same,pest or weed control at 1000 g/ha,[2]; [10],100%
same,pest or weed control at 1000 g/ha,[3]; [11],100%
"CSc1ccc(C(C)Nc2nc(N)nc(C(F)(F)F)n2)cc1 (racemic) [Example 1, 2-amino4-trifluoromethyl-6-[1-(4-methylthio-phenyl)-ethylamino]-1,3,5-triazine]",melting point,,111 °C
"CSc1ccc(C(C)Nc2nc(NC(C)=O)nc(C(F)(F)F)n2)cc1 (racemic) [Example 2, 2-acetylamino-4-trifluoromethyl-6-[1-(4-methylthio-phenyl)-ethylamino]-1,3,5-triazine]",melting point,,132 °C
"CC(Nc1nc(N)nc(C(F)(F)F)n1)c1ccc([S+](C)[O-])cc1 (racemic) [Example 3, 2-amino-4-trifluoromethyl-6-[1-(4-methylsulphinyl-phenyl)-ethylamino]-1,3,5-triazine]",melting point,,220 °C (dec.)
CC(F)c1nc(N)nc(NC(C)c2ccc(Cl)cc2)n1 (stereo not shown) [Example 13],activity against weeds,[4],strong activity
same,activity against weeds,[5],strong activity
CC(F)c1nc(N)nc(NC(C)c2ccc(Cl)cc2)n1 (stereo not shown) [Example 14],activity against weeds,[4],strong activity
CC(Nc1nc(N)nc(C(C)(C)F)n1)c1ccc(Cl)cc1 (stereo not shown) [Example 16],activity against weeds,[4],strong activity
same,activity against weeds,[5],strong activity
CC(Nc1nc(N)nc(C(C)(C)F)n1)c1ccc(Cl)cc1 (stereo not shown) [Example 22],activity against weeds,[4],strong activity
COc1ccc(C(C)Nc2nc(NC(C)=O)nc(C(F)(F)F)n2)cc1 (stereo not shown) [Example 82],melting point,,130 °C
same,activity against weeds,[5],strong activity
COc1ccc(C(C)Nc2nc(NC(C)=O)nc(C(F)(F)F)n2)cc1 (stereo not shown) [Example 84],melting point,,108 °C
same,activity against weeds,[5],strong activity
CCC(Nc1nc(N)nc(C(F)(F)F)n1)c1ccc(Cl)cc1 (stereo not shown) [Example 85],melting point,,145 °C
same,activity against weeds,[5],strong activity
CCC(Nc1nc(NC(C)=O)nc(C(F)(F)F)n1)c1ccc(Cl)cc1 (stereo not shown) [Example 90],melting point,,116 °C
same,activity against weeds,[5],strong activity
COCc1nc(N)nc(NC(C)c2ccc(Cl)cc2)n1 (stereo not shown) [Example 98],melting point,,149 °C
same,activity against weeds,[5],strong activity
COCc1nc(NC(C)=O)nc(NC(C)c2ccc(SC)cc2)n1 (stereo not shown) [Example 103],melting point,,141 °C
same,activity against weeds,[5],strong activity
CSc1ccc(C(C)Nc2nc(N)nc(C(Cl)Cl)n2)cc1 (stereo not shown) [Example 108],melting point,,125 °C
same,activity against weeds,[5],strong activity
CSc1ccc(C(C)Nc2nc(N)nc(C(C)(Cl)Cl)n2)cc1 (stereo not shown) [Example 126],melting point,,133 °C
same,activity against weeds,[5],strong activity
CC(=O)Nc1nc(NC(C)c2ccc(Cl)cc2)nc(C(Cl)Cl)n1 (stereo not shown) [Example 145],melting point,,132 °C
same,activity against weeds,[5],strong activity
CC(=O)Nc1nc(NC(C)c2ccc(Cl)cc2)nc(C(C)Cl)n1 (stereo not shown) [Example 146],melting point,,126 °C
same,activity against weeds,[5],strong activity
CC(Nc1nc(N)nc(C(Cl)Cl)n1)c1ccc(Cl)cc1 (stereo not shown) [Example 149],melting point,,152 °C
same,activity against weeds,[4],strong activity
CC(Cl)c1nc(N)nc(NC(C)c2ccc(Cl)cc2)n1 (stereo not shown) [Example 157],activity against weeds,[4],strong activity
CC(Nc1nc(N)nc(C(C)(Cl)Cl)n1)c1ccc(Cl)cc1 (stereo not shown) [Example 159],activity against weeds,[4],strong activity
CC(Nc1nc(N)nc(C(Cl)Cl)n1)c1ccc(Cl)cc1 (stereo not shown) [Example 168],melting point,,133 °C
same,activity against weeds,[5],strong activity
CCc1nc(NC(C)=O)nc(NC(C)c2ccc(Cl)cc2)n1 (stereo not shown) [Example 173],melting point,,182 °C
same,activity against weeds,[5],strong activity
CC(=O)Nc1nc(NC(C)c2ccc(Cl)cc2)nc(C(Cl)Cl)n1 (stereo not shown) [Example 175],melting point,,131 °C
same,activity against weeds,[5],strong activity
CC(=O)Nc1nc(NC(C)c2ccc(Cl)cc2)nc(C(C)Cl)n1 (stereo not shown) [Example 177],melting point,,110 °C
same,activity against weeds,[5],strong activity
COCc1nc(NC(C)=O)nc(NC(C)c2ccc(Cl)cc2)n1 (stereo not shown) [Example 178],melting point,,155 °C
same,activity against weeds,[5],strong activity
CC(Nc1nc(N)nc(C(F)C(F)(F)F)n1)c1ccc(Cl)cc1 (stereo not shown) [drawing 128],"% damage, Wheat",[6],10%
same,"% damage, Chenopodium",[7]; 250 g of ai./ha,100%
same,"% damage, Viola",[8]; 250 g of ai./ha,100%
same,"% damage, Setaria",[2]; 250 g of ai./ha,90%
same,"% damage, Amaranthus",[3]; 250 g of ai./ha,100%
same,"% damage, Polygonum",[9]; 250 g of ai./ha,100%
CC(Nc1nc(N)nc(C(Cl)Cl)n1)c1ccc(Cl)cc1 (stereo not shown) [drawing 129],plant injury at 500 g/ha,[6],10%
same,pest or weed control at 500 g/ha,[7]; [12],100%
same,pest or weed control at 500 g/ha,[8]; [13],100%
same,pest or weed control at 500 g/ha,[2]; [10],100%
same,pest or weed control at 500 g/ha,[3]; [11],100%
same,pest or weed control at 500 g/ha,[9]; [14],100%
CC(Cl)c1nc(N)nc(NC(C)c2ccc(Cl)cc2)n1 (stereo not shown) [drawing 131],"% damage, Wheat",[6],10%
same,"% damage, Chenopodium",[7]; 250 g of ai./ha,100%
same,"% damage, Viola",[8]; 250 g of ai./ha,100%
same,"% damage, Setaria",[2]; 250 g of ai./ha,90%
same,"% damage, Amaranthus",[3]; 250 g of ai./ha,100%
same,"% damage, Polygonum",[9]; 250 g of ai./ha,100%
CCc1nc(NC(C)=O)nc(NC(C)c2ccc(Cl)cc2)n1 (stereo not shown) [drawing 132],plant injury at 500 g/ha,[6],10%
same,pest or weed control at 500 g/ha,[7]; [12],100%
same,pest or weed control at 500 g/ha,[8]; [13],100%
same,pest or weed control at 500 g/ha,[2]; [10],80%
same,pest or weed control at 500 g/ha,[3]; [11],100%
same,pest or weed control at 500 g/ha,[9]; [14],100%
CC(=O)Nc1nc(NC(C)c2ccc(Cl)cc2)nc(C(Cl)Cl)n1 (stereo not shown) [drawing 133],plant injury at 500 g/ha,[6],10%
same,pest or weed control at 500 g/ha,[7]; [12],100%
same,pest or weed control at 500 g/ha,[8]; [13],100%
same,pest or weed control at 500 g/ha,[2]; [10],80%
same,pest or weed control at 500 g/ha,[3]; [11],100%
same,pest or weed control at 500 g/ha,[9]; [14],100%
CC(=O)Nc1nc(NC(C)c2ccc(Cl)cc2)nc(C(C)Cl)n1 (stereo not shown) [drawing 134],plant injury at 500 g/ha,[6],10%
same,pest or weed control at 500 g/ha,[7]; [12],100%
same,pest or weed control at 500 g/ha,[8]; [13],100%
same,pest or weed control at 500 g/ha,[2]; [10],100%
same,pest or weed control at 500 g/ha,[3]; [11],100%
same,pest or weed control at 500 g/ha,[9]; [14],100%
COCc1nc(NC(C)=O)nc(NC(C)c2ccc(Cl)cc2)n1 (stereo not shown) [drawing 135],plant injury at 500 g/ha,[6],10%
same,pest or weed control at 500 g/ha,[7]; [12],100%
same,pest or weed control at 500 g/ha,[8]; [13],100%
same,pest or weed control at 500 g/ha,[2]; [10],70%
same,pest or weed control at 500 g/ha,[3]; [11],100%
same,pest or weed control at 500 g/ha,[9]; [14],100%
CCC(Nc1nc(N)nc(C(F)(F)F)n1)c1ccc(Cl)cc1 (stereo not shown) [drawing 137],"% damage, Wheat",[6],0%
same,pest or weed control at 250 g/ha,"[7]; Chenopodium, 504 h, 250 g of ai./ha, read-out: % damage, Chenopodium",100%
same,pest or weed control at 250 g/ha,"[8]; 504 h, 250 g of ai./ha, read-out: % damage, Viola",100%
same,pest or weed control at 250 g/ha,"[2]; Setaria, 504 h, 250 g of ai./ha, read-out: % damage, Setaria",95%
same,pest or weed control at 250 g/ha,"[3]; Amaranthus, 504 h, 250 g of ai./ha, read-out: % damage, Amaranthus",100%
same,pest or weed control at 250 g/ha,"[9]; Polygonum, 504 h, 250 g of ai./ha, read-out: % damage, Polygonum",100%
COc1ccc(C(C)Nc2nc(N)nc(C(F)(F)F)n2)cc1 (stereo not shown) [drawing 138],plant injury at 500 g/ha,[6],0%
same,pest or weed control at 500 g/ha,[7]; [12],100%
same,pest or weed control at 500 g/ha,[8]; [13],100%
same,pest or weed control at 500 g/ha,[2]; [10],100%
same,pest or weed control at 500 g/ha,[3]; [11],100%
same,pest or weed control at 500 g/ha,[9]; [14],100%
COc1ccc(C(C)Nc2nc(NC(C)=O)nc(C(F)(F)F)n2)cc1 (stereo not shown) [drawing 141],plant injury at 500 g/ha,[6],10%
same,pest or weed control at 500 g/ha,[7]; [12],100%
same,pest or weed control at 500 g/ha,[8]; [13],100%
same,pest or weed control at 500 g/ha,[2]; [10],95%
same,pest or weed control at 500 g/ha,[3]; [11],100%
same,pest or weed control at 500 g/ha,[9]; [14],100%
